The IC50 is the midpoint of a concentration-inhibition curve.

Here are results for 27 compounds from US20080255213A1, “THIAZOLIDINONE AMIDES, THIAZOLIDINE CARBOXYLIC ACID AMIDES, AND SERINE AMIDES, INCLUDING POLYAMINE CONJUGATES THEREOF, AS SELECTIVE ANTI-CANCER AGENTS” (University of Tennessee Research Foundation, priority 2007, published 2008).

In assay [1] the test system is SK-MEL-188 melanoma cell line. The experiment in a line: Sulforhodamine B (SRB) cytotoxicity assay, SK-MEL-188. It is filed as cell-based. As to conditions: Homo sapiens, 48 h exposure, diastereomeric mixtures, value ± standard error, read-out: IC50 ± SEM SK-MEL-188 (converted). Here is the method: (§1) Cytotoxicity of these newly synthesized compounds was examined in two human melanoma cell lines (SK-MEL-188 and WM-164) and in a fibroblast cell line. Activity on fibroblast cells was used as a control to determine the selectivity of these compounds against melanoma. Standard sulforhodamine B (SRB) assay was used. Cells were exposed to a wide range of concentrations for 48 h in round-bottom 96-well plates. Cells were fixed with 10% trichloroacetic acid and washed five times with water. After cells were air-dried overnight and stained with SRB solution, total proteins were measured at 560 nm with a plate reader. IC50 (i.e., concentration which inhibited cell growth by 50% of DMSO-treated controls) values were obtained by nonlinear regression analysis with GraphPad Prism (GraphPad Software, San Diego, Calif.).
(§2) The ability of thiazolidine derivatives to inhibit the growth of two melanoma cancer cell lines and fibroblast cells is summarized in Table 1. […] At this early stage, all compounds were used as a diastereomeric mixture if they contain chiral centers in order to select the most promising compounds for further development.

A further assay has as its system fibroblast cell line. The experiment in a line: Sulforhodamine B (SRB) cytotoxicity assay, fibroblast control. The settings on record: 48 h exposure, control for selectivity, value ± standard error, read-out: IC50 ± SEM Fibroblast (converted). In kind it is cell-based. The method, then:
as §1, §2

The subject of assay [2] is WM-164 melanoma cell line. The experiment in a line: Sulforhodamine B (SRB) cytotoxicity assay, WM-164. As to conditions: Homo sapiens, WM164, 48 h exposure, diastereomeric mixtures, value ± standard error, read-out: IC50 ± SEM WM-164 (converted). In kind it is cell-based. The method, then: as §1, §2
In general terms: In SRB staining, fixed cells bind dye roughly in proportion to their protein.

A further assay deals with melanoma cells. As to the kind of experiment: SRB cytotoxicity assay, statements not tied to one cell line. The settings on record: for potency/activity in words: melanoma cells and fibroblast cells; for IC50: Homo sapiens; for selectivity in words: melanoma versus fibroblast cells. In kind it is cell-based, human. Here is the method:
as §1, §2

Molecules are shown by their SMILES. Where two headings read alike, the source gives them in different places.

For the compound `CCCCCCCCNC(=O)[C@@H]1CSC(c2cc(OC)c(OC)c(OC)c2)N1` (stereo partly drawn) [Compound 301, (4R)-2-(3,4,5-trimethoxyphenyl)-N-octylthiazolidine-4-carboxamide], the IC50 in assay [1] was 17100 ± 600 nM; in the assay with fibroblast cell line it was 20800 ± 10400 nM; in assay [2], 19600 ± 900 nM.
On to `CCCCCCCCCCNC(=O)[C@@H]1CSC(c2cc(OC)c(OC)c(OC)c2)N1` (stereo partly drawn) [Compound 302, (4R)—N-decyl-2-(3,4,5-trimethoxyphenyl)thiazolidine-4-carboxamide], for which the IC50 in assay [1] is 14500 nM; with fibroblast cell line, 6700 nM; in assay [2], 2100 nM. For the same compound, the potency/activity in words entry with melanoma cells was “low potency”.
Turning to `CCCCCCCCCCCCNC(=O)[C@@H]1CSC(c2cc(OC)c(OC)c(OC)c2)N1` (stereo partly drawn) [Compound 303, (4R)—N-dodecyl-2-(3,4,5-trimethoxyphenyl)thiazolidine-4-carboxamide], the IC50 was 2100 nM in assay [1], 2400 nM in the assay on fibroblast cell line and 2400 nM in assay [2].
With `CCCCCCCCCCCCCCNC(=O)[C@@H]1CSC(c2cc(OC)c(OC)c(OC)c2)N1` (stereo partly drawn) [Compound 304, (4R)-2-(3,4,5-trimethoxyphenyl)-N-tetradecylthiazolidine-4-carboxamide], the IC50 is 2000 nM in assay [1], 2600 nM with fibroblast cell line and 1600 nM in assay [2].
The matching figures for `CCCCCCCCCCCCCCCCNC(=O)[C@@H]1CSC(c2cc(OC)c(OC)c(OC)c2)N1` (stereo partly drawn) [Compound 305, (4R)—N-hexadecyl-2-(3,4,5-trimethoxyphenyl)thiazolidine-4-carboxamide]: 1800 nM, 2400 nM and 700 nM.
For `CCCCCCCCCCNC(=O)[C@@H]1CSC(c2ccc(OC)c(OC)c2)N1` (stereo partly drawn) [Compound 306, (4R)—N-decyl-2-(3,4-dimethoxyphenyl)thiazolidine-4-carboxamide], the IC50 in assay [1] is 11900 nM; in the assay with fibroblast cell line it was 6300 nM; in assay [2], 6100 nM. Besides, the potency/activity in words entry in the assay with melanoma cells was “low potency”.
As for `CCCCCCCCCCCCNC(=O)[C@@H]1CSC(c2ccc(OC)c(OC)c2)N1` (stereo partly drawn) [Compound 307, (4R)—N-dodecyl-2-(3,4-dimethoxyphenyl)thiazolidine-4-carboxamide], the IC50 is 2900 nM in assay [1], 4500 nM with fibroblast cell line and 1600 nM in assay [2].
For the compound `CCCCCCCCCCCCCCNC(=O)[C@@H]1CSC(c2ccc(OC)c(OC)c2)N1` (stereo partly drawn) [Compound 308, (4R)-2-(3,4-dimethoxyphenyl)-N-tetradecylthiazolidine-4-carboxamide], the IC50 in assay [1] is 1500 nM; in the assay on fibroblast cell line it was 2800 nM; in assay [2], 800 nM.
As for `CCCCCCCCCCCCCCCCNC(=O)[C@@H]1CSC(c2ccc(OC)c(OC)c2)N1` (stereo partly drawn) [Compound 309, (4R)—N-hexadecyl-2-(3,4-dimethoxyphenyl)thiazolidine-4-carboxamide], the IC50 in assay [1] is 1500 nM; in the assay on fibroblast cell line, 2100 nM; in assay [2] it was 500 nM.
Turning to `CCCCCCCCCCNC(=O)[C@@H]1CSC(c2ccc3c(c2)OCO3)N1` (stereo partly drawn) [Compound 310, (4R)-2-(benzo[d][1,3]dioxol-5-yl)-N-decylthiazolidine-4-carboxamide], the IC50 in assay [1] is 6600 nM; in the assay on fibroblast cell line it was 8200 nM; in assay [2] it was 4500 nM. In addition, in the assay with melanoma cells, the potency/activity in words result is “low potency”.
Regarding `CCCCCCCCCCCCNC(=O)[C@@H]1CSC(c2ccc3c(c2)OCO3)N1` (stereo partly drawn) [Compound 311, (4R)-2-(benzo[d][1,3]dioxol-5-yl)-N-dodecylthiazolidine-4-carboxamide], the figures for the IC50 (in assay [1]; with fibroblast cell line; in assay [2]) were 3500 nM, 5200 nM and 2500 nM, respectively.
As to `CCCCCCCCCCCCCCNC(=O)[C@@H]1CSC(c2ccc3c(c2)OCO3)N1` (stereo partly drawn) [Compound 312, (4R)-2-(benzo[d][1,3]dioxol-5-yl)-N-tetradecylthiazolidine-4-carboxamide], the figures for the IC50 (in assay [1]; in the assay on fibroblast cell line; in assay [2]) were 1600 nM, 4200 nM and 1000 nM, respectively.
For the compound `CCCCCCCCCCCCCCCCNC(=O)[C@@H]1CSC(c2ccc3c(c2)OCO3)N1` (stereo partly drawn) [Compound 313, (4R)-2-(benzo[d][1,3]dioxol-5-yl)-N-hexadecylthiazolidine-4-carboxamide], the results for the IC50 (in assay [1]; with fibroblast cell line; in assay [2]) were 1600 nM, 5700 nM and 1800 nM, respectively.
The matching figures for `CCCCCCCCCCCCNC(=O)[C@@H]1CSC(c2ccc(NC(C)=O)cc2)N1` (stereo partly drawn) [Compound 314, (4R)-2-(4-acetamidophenyl)-N-dodecylthiazolidine-4-carboxamide]: 2400 nM, 3500 nM and 1200 nM.
In the case of `CCCCCCCCCCCCCCNC(=O)[C@@H]1CSC(c2ccc(NC(C)=O)cc2)N1` (stereo partly drawn) [Compound 315, (4R)-2-(4-acetamidophenyl)-N-tetradecylthiazolidine-4-carboxamide], the IC50 was 2300 nM in assay [1], 3600 nM in the assay with fibroblast cell line and 600 nM in assay [2].
As for `CCCCCCCCCCCCCCCNC(=O)[C@@H]1CSC(c2ccc(NC(C)=O)cc2)N1` (stereo partly drawn) [Compound 316, (4R)-2-(4-acetamidophenyl)-N-pentadecylthiazolidine-4-carboxamide], the IC50 in assay [1] is 1600 nM; in the assay on fibroblast cell line it was 14300 nM; in assay [2], 1000 nM.
As for `CCCCCCCCCCCCCCCCNC(=O)[C@@H]1CSC(c2ccc(NC(C)=O)cc2)N1` (stereo partly drawn) [Compound 317, (4R)-2-(4-acetamidophenyl)-N-hexadecylthiazolidine-4-carboxamide], the IC50 in assay [1] is 2100 nM; in the assay on fibroblast cell line it was 19100 nM; in assay [2] it was 600 nM; in the assay on melanoma cells (melanoma cells, lowest value stated in text, read-out: IC50 for melanoma cells (as low as)), 600 nM.
For the compound `CCCCCCCCCCCCCCCCCNC(=O)[C@@H]1CSC(c2ccc(NC(C)=O)cc2)N1` (stereo partly drawn) [Compound 318, (4R)-2-(4-acetamidophenyl)-N-heptadecylthiazolidine-4-carboxamide], the IC50 in assay [1] was 8500 nM; with fibroblast cell line, 35800 nM; in assay [2], 2400 nM.
As to `CCCCCCCCC/C=C/CCCCCCCNC(=O)[C@@H]1CSC(c2ccc(NC(C)=O)cc2)N1` (stereo partly drawn) [Compound 320E, (4R)-2-(4-acetamidophenyl)-N-((E)-octadec-8-enyl)thiazolidine-4-carboxamide], the 50% inhibitory concentration (IC50) in assay [1] was 3300 nM; in the assay on fibroblast cell line it was 18000 nM; in assay [2], 1400 nM. Further, in the assay with melanoma cells, the potency/activity in words result is reported as “restored potency dramatically”.
Take `CCCCCCCCC/C=C\CCCCCCCNC(=O)[C@@H]1CSC(c2ccc(NC(C)=O)cc2)N1` (stereo partly drawn) [Compound 320Z, (4R)-2-(4-acetamidophenyl)-N-((Z)-octadec-8-enyl)thiazolidine-4-carboxamide]: the values for the IC50 (in assay [1]; with fibroblast cell line; in assay [2]) were 1400 nM, 10600 nM and 1000 nM, respectively. Besides, the potency/activity in words entry with melanoma cells was “restored potency dramatically”.
For the compound `CCCCCCCCCCCCCCNC(=O)[C@@H]1CSC(c2ccccc2)N1` (stereo partly drawn) [Compound 321, (4R)-2-phenyl-N-tetradecylthiazolidine-4-carboxamide], the IC50 was 1900 nM in assay [1], 2800 nM with fibroblast cell line and 600 nM in assay [2]. In addition, in the assay on melanoma cells, the selectivity in words result was “loss of selectivity”.
Take `CCCCCCCCCCCCCCCCNC(=O)[C@@H]1CSC(c2ccccc2)N1` (stereo partly drawn) [Compound 322, (4R)—N-hexadecyl-2-phenylthiazolidine-4-carboxamide]: the IC50 is 1900 nM in assay [1], 2200 nM in the assay on fibroblast cell line and 700 nM in assay [2]. Also, the selectivity in words result in the assay with melanoma cells is “loss of selectivity”.
`CCCCCCCCCCCCCCNC(=O)[C@H]1CSC(c2cc(OC)c(OC)c(OC)c2)N1` (stereo partly drawn) [Compound 324, (4S)-2-(3,4,5-trimethoxyphenyl)-N-tetradecylthiazolidine-4-carboxamide]: the figures for the IC50 (in assay [1]; in the assay with fibroblast cell line; in assay [2]) were 2600 ± 200 nM, 4100 ± 700 nM and 1100 ± 100 nM, respectively.
Take `CCCCCCCCCCCCCCCCNC(=O)[C@H]1CSC(c2ccc(NC(C)=O)cc2)N1` (stereo partly drawn) [Compound 325, (4S)-2-(4-acetamidophenyl)-N-hexadecylthiazolidine-4-carboxamide]: the IC50 in assay [1] was 3200 nM; with fibroblast cell line, 22600 nM; in assay [2], 1400 nM.
Regarding `CCCCCCCCCCCCNC(=O)[C@@H]1CSC(c2ccc(N)cc2)N1` (stereo partly drawn) [Compound 326, (4R)-2-(4-aminophenyl)-N-dodecylthiazolidine-4-carboxamide], the results for the IC50 (in assay [1]; in the assay on fibroblast cell line; in assay [2]) were 2200 nM, 4100 nM and 1400 nM, respectively.
Consider `CCCCCCCCCCCCCCCCNC(=O)[C@@H]1CSC(c2ccc(N)cc2)N1` (stereo partly drawn) [Compound 327, (4R)-2-(4-aminophenyl)-N-hexadecylthiazolidine-4-carboxamide], for which the values for the concentration for half-maximal inhibition (IC50) (in assay [1]; in the assay on fibroblast cell line; in assay [2]) were 2300 nM, 7400 nM and 1400 nM, respectively.
`CN(C)/N=N/c1[nH]cnc1C(N)=O` [DTIC, dacarbazine, reference compound]: the IC50 in assay [1] was over 100000 nM; in assay [2], over 100000 nM; in the assay on melanoma cells (summary over the cell lines, read-out: IC50 in the in vitro assay (cell line not given)), over 100000 nM.
